Measured values as given in patent US20130165450A1, “Novel Thiazol-Carboximide Derivatives as PDK1 Inhibitors” (priority 2010, published 2013).

Biological target: T1, recombinant human PDK1 (amino acids 51-556) (Homo sapiens, UniProt O15530)
T1 construct: containing amino acids 51-556 of the human PDK1 enzyme; made in house
T1 sequence (O15530 51-556): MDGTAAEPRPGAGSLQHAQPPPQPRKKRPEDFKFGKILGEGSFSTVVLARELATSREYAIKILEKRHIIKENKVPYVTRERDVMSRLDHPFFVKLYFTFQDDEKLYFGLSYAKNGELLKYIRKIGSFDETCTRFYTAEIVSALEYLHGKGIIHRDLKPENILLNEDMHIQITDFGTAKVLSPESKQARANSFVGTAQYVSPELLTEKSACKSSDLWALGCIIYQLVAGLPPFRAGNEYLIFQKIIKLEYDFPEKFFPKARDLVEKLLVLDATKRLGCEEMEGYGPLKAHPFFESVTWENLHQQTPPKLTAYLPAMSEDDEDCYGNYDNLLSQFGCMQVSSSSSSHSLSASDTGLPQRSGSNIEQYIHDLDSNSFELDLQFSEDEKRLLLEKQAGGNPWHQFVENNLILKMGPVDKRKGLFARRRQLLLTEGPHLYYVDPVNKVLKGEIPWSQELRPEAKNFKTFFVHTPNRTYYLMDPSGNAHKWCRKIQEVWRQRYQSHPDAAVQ
Test: PDK1 IMAP fluorescence polarization kinase assay
Assay type: biochemical
Settings: 10 nM PDK1, 100 nM peptide substrate, 100 nM PIFtide, 2.5 uM ATP, 1.5 hours

Row | SMILES | IC50 (numeric values) | IC50 (rated A-D)
1 | Nc1ccc(N2CCC[C@@H](N)C2)c(NC(=O)c2csc(-c3cnn(Cc4cccs4)c3)n2)c1 [Compound 1, N-[5-amino-2-(3(R)-amino-1-piperidinyl)phenyl]-2-[1-(2-thienylmethyl)-1H-pyrazol-4-yl]-4-thiazolecarboxamide] | 7 nM | 
2 | CN(C)CCCn1cc(-c2nc(C(=O)Nc3cc(N)ccc3N3CCC[C@@H](N)C3)cs2)cn1 [Compound 2, N-[5-amino-2-(3(R)-amino-1-piperidinyl)phenyl]-2-[1-[3-(dimethylamino)propyl]-1H-pyrazol-4-yl]-4-thiazolecarboxamide] |  | 251 to 1000 nM
3 | Nc1ccc(N2CCC[C@@H](N)C2)c(NC(=O)c2csc(-c3cnn(CCN4CCOCC4)c3)n2)c1 [Compound 4, N-[5-amino-2-(3(R)-amino-1-piperidinyl)phenyl]-2-[1-[2-(4-morpholinyl)ethyl]-1H-pyrazol-4-yl]-4-thiazolecarboxamide] |  | 251 to 1000 nM
4 | CNC1(C(N)=O)CCN(c2ccc(N)cc2NC(=O)c2csc(-c3cnn(Cc4cccs4)c3)n2)CC1 [Compound 5, 1-[4-amino-2-[[[2-[1-(2-thienylmethyl)-1H-pyrazol-4-yl]-4-thiazolyl]carbonyl]amino]phenyl]-4-(methylamino)-4-piperidinecarboxamide] | 81 nM | 
5 | Nc1ccc(N2CCC3(CCCNC3)CC2)c(NC(=O)c2csc(-c3cnn(Cc4cccs4)c3)n2)c1 [Compound 7, N-[5-amino-2-(2,9-diazaspiro[5.5]undec-9-yl)phenyl]-2-[1-(2-thienylmethyl)-1H-pyrazol-4-yl]-4-thiazolecarboxamide] | 60 nM | 
6 | CCOC(=O)C1CCCN(c2ccc(N)cc2NC(=O)c2csc(-c3cnn(Cc4cccs4)c3)n2)C1 (centres unmarked) [Compound 11, ethyl 1-[4-amino-2-[[[2-[1-(2-thienylmethyl)-1H-pyrazol-4-yl]-4-thiazolyl]carbonyl]amino]phenyl]-3-piperidinecarboxylate] |  | > 1000 nM
7 | CCOC(=O)C1CCN(c2ccc(N)cc2NC(=O)c2csc(-c3cnn(Cc4cccs4)c3)n2)CC1 [Compound 12, ethyl 1-[4-amino-2-[[[2-[1-(2-thienylmethyl)-1H-pyrazol-4-yl]-4-thiazolyl]carbonyl]amino]phenyl]-4-piperidinecarboxylate] |  | 251 to 1000 nM
8 | Nc1ccc(N2CCC3(CCCNC3)CC2)c(NC(=O)c2csc(-c3cnn(Cc4ccccn4)c3)n2)c1 [Compound 20, N-[5-amino-2-(2,9-diazaspiro[5.5]undec-9-yl)phenyl]-2-[1-(2-pyridinylmethyl)-1H-pyrazol-4-yl]-4-thiazolecarboxamide] |  | 51 to 250 nM
9 | NCC1CCN(c2ccc(N)cc2NC(=O)c2csc(-c3cnn(Cc4ccccn4)c3)n2)CC1 [Compound 24, N-[5-amino-2-[4-(aminomethyl)-1-piperidinyl]phenyl]-2-[1-(2-pyridinylmethyl)-1H-pyrazol-4-yl]-4-thiazolecarboxamide] |  | 51 to 250 nM
10 | N[C@@H]1CCCN(c2c(F)cccc2NC(=O)c2csc(-c3cnn(Cc4ccccc4)c3)n2)C1 [Compound 25, N-[2-(3(R)-amino-1-piperidinyl)-3-fluorophenyl]-2-[1-(phenylmethyl)-1H-pyrazol-4-yl]-4-thiazolecarboxamide] |  | 51 to 250 nM
11 | N[C@@H]1CCCN(c2c(F)cccc2NC(=O)c2csc(-c3cnn(Cc4ccccn4)c3)n2)C1 [Compound 27, N-[2-(3(R)-amino-1-piperidinyl)-3-fluorophenyl]-2-[1-(2-pyridinylmethyl)-1H-pyrazol-4-yl]-4-thiazolecarboxamide] |  | 51 to 250 nM
12 | Nc1ccc(N2CC[C@@H](N)C2)c(NC(=O)c2csc(-c3cnn(Cc4ccccn4)c3)n2)c1 [Compound 29, N-[5-amino-2-(3(R)-amino-1-pyrrolidinyl)phenyl]-2-[1-(2-pyridinylmethyl)-1H-pyrazol-4-yl]-4-thiazolecarboxamide] |  | 51 to 250 nM
13 | CC(c1ccccc1)n1cc(-c2nc(C(=O)Nc3cc(N)ccc3N3CCC[C@@H](N)C3)cs2)cn1 (stereo partly drawn) [Compound 30, N-[5-amino-2-(3(R)-amino-1-piperidinyl)phenyl]-2-[1-(1-phenylethyl)-1H-pyrazol-4-yl]-4-thiazolecarboxamide] |  | 51 to 250 nM

More lines, now with the values ahead:

Row | IC50 (numeric values) | IC50 (rated A-D) | SMILES
14 |  | 1 to 50 nM | Nc1ccc(N2CCC[C@@H](N)C2)c(NC(=O)c2csc(-c3cnn(Cc4ccccc4)c3)n2)c1 [Compound 3, N-[5-amino-2-(3(R)-amino-1-piperidinyl)phenyl]-2-[1-(phenylmethyl)-1H-pyrazol-4-yl]-4-thiazolecarboxamide]
15 |  | 51 to 250 nM | NCC1CCN(c2c(F)cccc2NC(=O)c2csc(-c3cnn(Cc4cccs4)c3)n2)CC1 [Compound 6, N-[2-[4-(aminomethyl)-1-piperidinyl]-3-fluorophenyl]-2-[1-(2-thienylmethyl)-1H-pyrazol-4-yl]-4-thiazolecarboxamide]
16 |  | 1 to 50 nM | NCC1CCN(c2ccc(N)cc2NC(=O)c2csc(-c3cnn(Cc4cccs4)c3)n2)CC1 [Compound 8, N-[5-amino-2-[4-(aminomethyl)-1-piperidinyl]phenyl]-2-[1-(2-thienylmethyl)-1H-pyrazol-4-yl]-4-thiazolecarboxamide]
17 |  | 51 to 250 nM | Nc1ccc(N2CCC[C@@H](N)C2)c(NC(=O)c2csc(-c3cnn(Cc4ccncc4)c3)n2)c1 [Compound 9, N-[5-amino-2-(3(R)-amino-1-piperidinyl)phenyl]-2-[1-(4-pyridinylmethyl)-1H-pyrazol-4-yl]-4-thiazolecarboxamide]
18 |  | 1 to 50 nM | Nc1ccc(N2CC[C@@H](N)C2)c(NC(=O)c2csc(-c3cnn(Cc4cccs4)c3)n2)c1 [Compound 10, N-[5-amino-2-(3(R)-amino-1-pyrrolidinyl)phenyl]-2-[1-(2-thienylmethyl)-1H-pyrazol-4-yl]-4-thiazolecarboxamide]
19 |  | 1 to 50 nM | Nc1ccc(N2CCC[C@@H](N)C2)c(NC(=O)c2csc(-c3cnn(Cc4ccccn4)c3)n2)c1 [Compound 13, N-[5-amino-2-(3(R)-amino-1-piperidinyl)phenyl]-2-[1-(2-pyridinylmethyl)-1H-pyrazol-4-yl]-4-thiazolecarboxamide]
20 |  | 1 to 50 nM | Nc1ccc(N2CCC[C@@H](N)C2)c(NC(=O)c2csc(-c3cnn(Cc4ccc(F)c(F)c4)c3)n2)c1 [Compound 14, N-[5-amino-2-(3(R)-amino-1-piperidinyl)phenyl]-2-[1-[(3,4-difluorophenyl)methyl]-1H-pyrazol-4-yl]-4-thiazolecarboxamide]
21 |  | 1 to 50 nM | Nc1ccc(N2CCC3(CC2)OCCO3)c(NC(=O)c2csc(-c3cnn(Cc4cccc(F)c4)c3)n2)c1 [Compound 15, N-[5-amino-2-(1,4-dioxa-8-azaspiro[4.5]dec-8-yl)phenyl]-2-[1-[(3-fluorophenyl)methyl]-1H-pyrazol-4-yl]-4-thiazolecarboxamide]
22 |  | 1 to 50 nM | Nc1ccc(N2CCC[C@@H](N)C2)c(NC(=O)c2csc(-c3cnn(Cc4cc(F)cc(F)c4)c3)n2)c1 [Compound 16, N-[5-amino-2-(3(R)-amino-1-piperidinyl)phenyl]-2-[1-[(3,5-difluorophenyl)methyl]-1H-pyrazol-4-yl]-4-thiazolecarboxamide]
23 |  | 1 to 50 nM | Nc1ccc(N2CCC[C@@H](N)C2)c(NC(=O)c2csc(-c3cnn(CCc4ccccc4)c3)n2)c1 [Compound 17, N-[5-amino-2-(3(R)-amino-1-piperidinyl)phenyl]-2-[1-(2-phenylethyl)-1H-pyrazol-4-yl]-4-thiazolecarboxamide]
24 |  | 1 to 50 nM | Nc1ccc(N2CCC[C@@H](N)C2)c(NC(=O)c2csc(-c3cnn(Cc4cccnc4)c3)n2)c1 [Compound 18, N-[5-amino-2-(3(R)-amino-1-piperidinyl)phenyl]-2-[1-(3-pyridinylmethyl)-1H-pyrazol-4-yl]-4-thiazolecarboxamide]
25 |  | 1 to 50 nM | Nc1ccc(N2CCC[C@@H](N)C2)c(NC(=O)c2csc(-c3cnn(Cc4cccc(F)c4)c3)n2)c1 [Compound 19, N-[5-amino-2-(3(R)-amino-1-piperidinyl)phenyl]-2-[1-[(3-fluorophenyl)methyl]-1H-pyrazol-4-yl]-4-thiazolecarboxamide]
26 |  | 1 to 50 nM | Nc1ccc(N2CCC[C@@H](N)C2)c(NC(=O)c2csc(-c3cnn(Cc4ccccc4F)c3)n2)c1 [Compound 21, N-[5-amino-2-(3(R)-amino-1-piperidinyl)phenyl]-2-[1-[(2-fluorophenyl)methyl]-1H-pyrazol-4-yl]-4-thiazolecarboxamide]
27 |  | 1 to 50 nM | Nc1ccc(N2CCC[C@@H](N)C2)c(NC(=O)c2csc(-c3cnn(Cc4cc(F)ccc4F)c3)n2)c1 [Compound 22, N-[5-amino-2-(3(R)-amino-1-piperidinyl)phenyl]-2-[1-[(2,5-difluorophenyl)methyl]-1H-pyrazol-4-yl]-4-thiazolecarboxamide]
28 |  | 1 to 50 nM | N[C@@H]1CCCN(c2c(F)cccc2NC(=O)c2csc(-c3cnn(Cc4cccs4)c3)n2)C1 [Compound 23, N-[2-(3(R)-amino-1-piperidinyl)-3-fluorophenyl]-2-[1-(2-thienylmethyl)-1H-pyrazol-4-yl]-4-thiazolecarboxamide]
29 |  | 1 to 50 nM | COCCn1cc(-c2nc(C(=O)Nc3cc(N)ccc3N3CCC[C@@H](N)C3)cs2)cn1 [Compound 26, N-[5-amino-2-(3(R)-amino-1-piperidinyl)phenyl]-2-[1-(2-methoxyethyl)-1H-pyrazol-4-yl]-4-thiazolecarboxamide]
